# pIC50: −log10 of the molar value. The source made the active and inactive calls. The calls are words filed in the database; no cut-off is given here.
# Legend:
# K562 [1] = experiment: Induction of cell cycle arrest in human K562 cells assessed as decrease in accumulation of cells at S phase at 1.4 uM after 24 hrs by propidium iodide staining based flow cytometric analysis; format: functional
# K562 [2] = experiment: Induction of cell cycle arrest in human K562 cells assessed as decrease in accumulation of cells at G1 phase at 1.4 uM after 24 hrs by propidium iodide staining based flow cytometric analysis; format: functional
# K562-Lucena 1 [3] = experiment: Induction of cell cycle arrest in human K562-Lucena 1 cells assessed as decrease in accumulation of cells at G1 phase at 40 uM after 24 hrs by propidium iodide staining based flow cytometric analysis; format: functional
# CCRF-CEM = experiment: Cytotoxicity against human CCRF-CEM cells after 48 hrs by MTT assay; format: functional, cell-based
# K562 [4] = experiment: Cytotoxicity against human K562 cells after 48 hrs by MTT assay; format: functional, cell-based; settings: K562, 48 h
# ADR5000 cell line = experiment: Cytotoxicity against human CEM/ADR5000 cells after 48 hrs by MTT assay; format: functional, cell-based; settings: ADR5000, 48 h
# K562-Lucena 1 [5] = experiment: Cytotoxicity against human K562-Lucena 1 cells after 48 hrs by MTT assay; format: functional, cell-based; settings: K562-Lucena 1, 48 h
# K562-Lucena 1 [6] = experiment: Induction of cell cycle arrest in human K562-Lucena 1 cells assessed as early apoptotic cells at 2 mM after 24 hrs by propidium iodide staining based flow cytometric analysis (reference value: 7.79%); format: functional
# K562-Lucena 1 [7] = experiment: Induction of morphological changes in human K562-Lucena 1 cells assessed as appearance of condensed chromatin at 2 mM incubated for 48 hrs by DAPI staining based fluorescence microscopy; format: functional, cell-based
# K562 [8] = experiment: Induction of apoptosis in human K562 cells assessed as necrotic cells at 2 mM after 24 hrs by Annexin V-FITC/PI double staining based flow cytometry analysis (reference value: 0.085%); format: functional
# K562-Lucena 1 [9] = experiment: Induction of cell cycle arrest in human K562-Lucena 1 cells assessed as early apoptotic cells at 2 mM after 48 hrs by propidium iodide staining based flow cytometric analysis (reference value: 7.57%); format: functional
# K562-Lucena 1 [10] = experiment: Induction of cell cycle arrest in human K562-Lucena 1 cells assessed as necrotic cells at 2 mM after 48 hrs by propidium iodide staining based flow cytometric analysis (reference value: 2.15%); format: functional
# K562 [11] = experiment: Induction of morphological changes in human K562 cells assessed as appearance of apoptotic bodies at 2 mM incubated for 48 hrs by DAPI staining based fluorescence microscopy; format: functional, cell-based
# K562-Lucena 1 [12] = experiment: Induction of cell cycle arrest in human K562-Lucena 1 cells assessed as necrotic cells at 2 mM after 24 hrs by propidium iodide staining based flow cytometric analysis (reference value: 1.03%); format: functional
# K562 [13] = experiment: Induction of apoptosis in human K562 cells assessed as late apoptotic cells at 2 mM after 48 hrs by Annexin V-FITC/PI double staining based flow cytometry analysis (reference value: 0.41%); format: functional
# K562 [14] = experiment: Induction of apoptosis in human K562 cells assessed as late apoptotic cells at 2 mM after 24 hrs by Annexin V-FITC/PI double staining based flow cytometry analysis (reference value: 0.79%); format: functional
# K562 [15] = experiment: Induction of apoptosis in human K562 cells assessed as early apoptotic cells at 2 mM after 24 hrs by Annexin V-FITC/PI double staining based flow cytometry analysis (reference value: 2.76%); format: functional
# K562 [16] = experiment: Induction of DNA fragmentation in human K562 cells at 2 mM incubated for 48 hrs by DAPI staining based fluorescence microscopy; format: functional, cell-based
# K562 [17] = experiment: Induction of apoptosis in human K562 cells assessed as early apoptotic cells at 2 mM after 48 hrs by Annexin V-FITC/PI double staining based flow cytometry analysis (reference value: 1.67%); format: functional
# K562 [18] = experiment: Induction of apoptosis in human K562 cells assessed as necrotic cells at 2 mM after 48 hrs by Annexin V-FITC/PI double staining based flow cytometry analysis (reference value: 0.13%); format: functional
# K562-Lucena 1 [19] = experiment: Induction of cell cycle arrest in human K562-Lucena 1 cells assessed as late apoptotic cells at 2 mM after 24 hrs by propidium iodide staining based flow cytometric analysis (reference value: 3.15%); format: functional
# K562-Lucena 1 [20] = experiment: Induction of morphological changes in human K562-Lucena 1 cells assessed as appearance of apoptotic bodies at 2 mM incubated for 48 hrs by DAPI staining based fluorescence microscopy; format: functional, cell-based
# K562-Lucena 1 [21] = experiment: Induction of DNA fragmentation in human K562-Lucena 1 cells at 2 mM incubated for 48 hrs by DAPI staining based fluorescence microscopy; format: functional, cell-based
# K562 [22] = experiment: Induction of apoptosis in human K562 cells assessed as viable cells at 2 mM after 48 hrs by Annexin V-FITC/PI double staining based flow cytometry analysis (Rvb =97.8%); format: functional; settings: K562, 48 h, read-out: Activity
# K562-Lucena 1 [23] = experiment: Induction of cell cycle arrest in human K562-Lucena 1 cells assessed as viable cells at 2 mM after 48 hrs by propidium iodide staining based flow cytometric analysis (reference value: 87.1%); format: functional; settings: K562-Lucena 1, 48 h, read-out: Activity
# K562-Lucena 1 [24] = experiment: Induction of cell cycle arrest in human K562-Lucena 1 cells assessed as late apoptotic cells at 2 mM after 48 hrs by propidium iodide staining based flow cytometric analysis (reference value: 3.23%); format: functional
# K562 [25] = experiment: Induction of morphological changes in human K562 cells assessed as appearance of condensed chromatin at 2 mM incubated for 48 hrs by DAPI staining based fluorescence microscopy; format: functional, cell-based
# K562 [26] = experiment: Induction of apoptosis in human K562 cells assessed as viable cells at 2 mM after 24 hrs by Annexin V-FITC/PI double staining based flow cytometry analysis (Rvb =96.4%); format: functional; settings: K562, 24 h, read-out: Activity
# K562-Lucena 1 [27] = experiment: Induction of cell cycle arrest in human K562-Lucena 1 cells assessed as viable cells at 2 mM after 24 hrs by propidium iodide staining based flow cytometric analysis (reference value: 88%); format: functional; settings: K562-Lucena 1, 24 h, read-out: Activity
compound,measurement,setting,value
COc1cccc2c1C(=O)c1c(O)c3c(c(O)c1C2=O)C[C@@](O)(C(=O)CO)C[C@@H]3O[C@H]1C[C@H](N)[C@H](O)[C@H](C)O1 [DOXORUBICIN],Activity,K562 [1],inactive
same,Activity,K562 [2],inactive
same,Activity,K562-Lucena 1 [3],Active
same,pIC50,CCRF-CEM,6.77
same,pIC50,K562 [4],5.85
same,pIC50,ADR5000 cell line,< 5.00
same,pIC50,K562-Lucena 1 [5],< 5.00
C=C(CO)C(=O)O[C@H]1C[C@@]2(C=O)OC2CC/C(C)=C/[C@H]2OC(=O)C(=C)[C@H]12 (stereo partly drawn),pIC50,CCRF-CEM,5.70
same,pIC50,K562 [4],5.16
same,pIC50,ADR5000 cell line,5.34
same,pIC50,K562-Lucena 1 [5],< 5.00
NC(=O)NO [HYDROXYUREA],Activity,K562-Lucena 1 [6],15.3%
same,Activity,K562-Lucena 1 [7],Active
same,Activity,K562 [8],0.75%
same,Activity,K562-Lucena 1 [9],22.1%
same,Activity,K562-Lucena 1 [10],5.57%
same,Activity,K562 [11],Active
same,Activity,K562-Lucena 1 [12],1.99%
same,Activity,K562 [13],6.06%
same,Activity,K562 [14],0.45%
same,Activity,K562 [15],2.82%
same,Activity,K562 [16],Active
same,Activity,K562 [17],21.9%
same,Activity,K562 [18],1.5%
same,Activity,K562-Lucena 1 [19],5.06%
same,Activity,K562-Lucena 1 [20],Active
same,Activity,K562-Lucena 1 [21],Active
same,viability at 2000 µM,K562 [22],70.5%
same,viability at 2000 µM,K562-Lucena 1 [23],60.1%
same,Activity,K562-Lucena 1 [24],12.2%
same,Activity,K562 [25],Active
same,viability at 2000 µM,K562 [26],96%
same,viability at 2000 µM,K562-Lucena 1 [27],77.7%

# From ChEMBL document CHEMBL4622878, “Cytotoxic Activity of Germacrane-Type Sesquiterpene Lactones from Dimerostemma aspilioides” (J Nat Prod, 2020)
